Measurements from patent US12655116B2, “Substituted isophthalic acid diamides” (Bayer Aktiengesellschaft, priority 2020, dated 2026).

Tests used:
ABUTH [1] = test: Pre-emergence herbicidal action against ABUTH; assay type: in vivo, Abutilon theophrasti; settings: for pest or weed control at 80 g/ha / pest or weed control at 20 g/ha: Abutilon theophrasti, 504 h; for pest or weed control at 20 g/ha: read-out: Pre-emergence action against ABUTH (herbicidal activity in percent)
Summary of the method: (§1)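 Seeds sown in sandy loam, soil-covered; compound sprayed on soil surface pre-emergence. Application: WP/EC, 600–800 l/ha, 0.2% wetting agent. Readout: visual % damage at 3 weeks.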

AMARE [2] = test: Pre-emergence herbicidal action against AMARE; assay type: in vivo, Amaranthus retroflexus; settings: for pest or weed control at 20 g/ha / pest or weed control at 80 g/ha: Amaranthus retroflexus, 504 h
Summary of the method: as §1

ECHCG [3] = test: Pre-emergence herbicidal action against ECHCG; assay type: in vivo, Echinochloa crus-galli; settings: for pest or weed control at 80 g/ha: Echinochloa crus-galli, 504 h
Summary of the method: as §1

MATIN [4] = test: Pre-emergence herbicidal action against MATIN; assay type: in vivo, Matricaria inodora; settings: for pest or weed control at 20 g/ha / pest or weed control at 80 g/ha: Tripleurospermum inodorum, 504 h
Summary of the method: as §1

SETVI [5] = test: Pre-emergence herbicidal action against SETVI; assay type: in vivo, Setaria viridis; settings: dosage 80 g/ha; for pest or weed control at 80 g/ha: Setaria viridis, 504 h
Summary of the method: as §1

VIOTR [6] = test: Pre-emergence herbicidal action against VIOTR; assay type: in vivo, Viola tricolor
Summary of the method: as §1

DIGSA [7] = test: Pre-emergence herbicidal action against DIGSA; assay type: in vivo, Digitaria sanguinalis; settings: for pest or weed control at 20 g/ha / pest or weed control at 80 g/ha: Digitaria sanguinalis, 504 h
Summary of the method: as §1

ABUTH [8] = test: Post-emergence herbicidal action against ABUTH; assay type: in vivo, Abutilon theophrasti; settings: visual assessment about 3 weeks after treatment vs untreated controls; for pest or weed control at 5 g/ha / pest or weed control at 20 g/ha: Abutilon theophrasti, 504 h
Summary of the method: (§2)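 Percent herbicidal action is rated by eye about 3 weeks after treatment against untreated controls, where 100% means dead plants and 0% means like controls. Plants in sandy loam are sprayed on green parts at the one-leaf stage with aqueous WP or EC preparations at 600 to 800 l/ha plus 0.2% wetting agent.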

ECHCG [9] = test: Post-emergence herbicidal action against ECHCG; assay type: in vivo, Echinochloa crus-galli
Summary of the method: as §2

MATIN [10] = test: Post-emergence herbicidal action against MATIN; assay type: in vivo, Matricaria inodora; settings: for pest or weed control at 20 g/ha: Tripleurospermum inodorum, 504 h
Summary of the method: as §2

PHBPU [11] = test: Post-emergence herbicidal action against PHBPU; assay type: in vivo, Pharbitis purpurea; settings: dosage 20 g/ha
Summary of the method: as §2

POLCO = test: Post-emergence herbicidal action against POLCO; assay type: in vivo, Polygonum convolvulus
Method: Seeds of monocotyledonous and dicotyledonous weed and crop plants are laid out in sandy loam soil in wood-fiber pots, covered with soil and cultivated in a greenhouse under good growth conditions. 2 to 3 weeks after sowing, the test plants are treated at the one-leaf stage. The compounds of the invention, formulated in the form of wettable powders (WP) or as emulsion concentrates (EC), are then sprayed onto the green parts of the plants in the form of an aqueous suspension or emulsion at a water application rate equivalent to 600 to 800 l/ha, with addition of 0.2% wetting agent. After the test plants have been left to stand in the greenhouse under optimal growth conditions for about 3 weeks, the action of the preparations is assessed visually in comparison to untreated controls (herbicidal action in percent (%): 100% activity=the plants have died, 0% activity=like control plants). […] The tables below illustrate, in an illustrative manner, the post-emergence herbicidal action of the compounds of the invention, the herbicidal activity being stated in percent.

SETVI [12] = test: Post-emergence herbicidal action against SETVI; assay type: in vivo, Setaria viridis
Summary of the method: as §2

VERPE [13] = test: Post-emergence herbicidal action against VERPE; assay type: in vivo, Veronica persica; settings: for pest or weed control at 5 g/ha / pest or weed control at 20 g/ha: Veronica persica, 504 h
Summary of the method: as §2

VIOTR [14] = test: Post-emergence herbicidal action against VIOTR; assay type: in vivo, Viola tricolor
Summary of the method: as §2

ALOMY = test: Pre-emergence herbicidal action against ALOMY; assay type: in vivo, Alopecurus myosuroides; settings: Alopecurus myosuroides, 504 h; 80 g/ha, pre-emergence, scored visually after 3 weeks vs untreated controls (100% = plants have died, 0% = like control plants)
Summary of the method: as §1

VERPE [15] = test: Pre-emergence herbicidal action against VERPE; assay type: in vivo, Veronica persica
Summary of the method: as §1

PHBPU [16] = test: Pre-emergence herbicidal action against PHBPU; assay type: in vivo, Pharbitis purpurea; settings: dosage 80 g/ha
Summary of the method: as §1

AMARE [17] = test: Post-emergence herbicidal action against AMARE; assay type: in vivo, Amaranthus retroflexus; settings: 20 g/ha, visual assessment about 3 weeks after treatment, 100% = plants have died, 0% = like control plants
Summary of the method: as §2

DIGSA [18] = test: Post-emergence herbicidal action against DIGSA; assay type: in vivo, Digitaria sanguinalis
Summary of the method: as §2

[19] = 80 g/ha, scored visually after 3 weeks vs untreated controls (100% = plants have died, 0% = like control plants)
[20] = dosage 20 g/ha, scored visually after 3 weeks vs untreated controls, 100% = plants have died, 0% = like control plants
[21] = 20 g/ha, scored visually after 3 weeks vs untreated controls, 100% = plants have died, 0% = like control plants
[22] = 80 g/ha, scored visually after 3 weeks vs untreated controls, 100% = plants have died, 0% = like control plants
[23] = Viola tricolor, 504 h, dosage 80 g/ha
[24] = Echinochloa crus-galli, 504 h, dosage 20 g/ha
[25] = Fallopia convolvulus, 504 h, dosage 20 g/ha

CNC(=O)c1c(C(F)F)ccc(C(=O)Nc2nnnn2C)c1OC [Example 1-72]
pest or weed control at 80 g/ha (ABUTH [1]; [19]): 100% | pest or weed control at 20 g/ha (ABUTH [1]; [20]): 100% | pest or weed control at 20 g/ha (AMARE [2]; [21]): 100% | pest or weed control at 80 g/ha (AMARE [2]; [22]): 100% | pest or weed control at 80 g/ha (ECHCG [3]; 80 g/ha): 80% | pest or weed control at 20 g/ha (MATIN [4]; dosage 20 g/ha): 80% | pest or weed control at 80 g/ha (MATIN [4]; dosage 80 g/ha): 100% | pest or weed control at 80 g/ha (SETVI [5]): 100% | pest or weed control at 80 g/ha (VIOTR [6]; [23]): 100% | pest or weed control at 20 g/ha (DIGSA [7]; dosage 20 g/ha): 90% | pest or weed control at 80 g/ha (DIGSA [7]; dosage 80 g/ha): 100% | pest or weed control at 5 g/ha (ABUTH [8]; dosage 5 g/ha): 80% | pest or weed control at 20 g/ha (ABUTH [8]; dosage 20 g/ha): 90% | pest or weed control at 20 g/ha (ECHCG [9]; [24]): 80% | pest or weed control at 20 g/ha (MATIN [10]; dosage 20 g/ha): 80% | pest or weed control at 20 g/ha (PHBPU [11]; Ipomoea purpurea, 504 h): 80% | pest or weed control at 5 g/ha (POLCO; Fallopia convolvulus, 504 h, dosage 5 g/ha): 100% | pest or weed control at 20 g/ha (POLCO; [25]): 100% | pest or weed control at 20 g/ha (SETVI [12]; Setaria viridis, 504 h, dosage 20 g/ha): 80% | pest or weed control at 5 g/ha (VERPE [13]): 80% | pest or weed control at 20 g/ha (VERPE [13]; 20 g/ha): 90% | pest or weed control at 20 g/ha (VIOTR [14]; Viola tricolor, 504 h, 20 g/ha): 90%

CCNC(=O)c1c(C(F)F)ccc(C(=O)Nc2nnnn2C)c1OC [Example 1-73]
pest or weed control at 80 g/ha (ABUTH [1]; [19]): 100% | pest or weed control at 20 g/ha (ABUTH [1]; [20]): 100% | pest or weed control at 80 g/ha (ALOMY): 80% | pest or weed control at 20 g/ha (AMARE [2]; [21]): 100% | pest or weed control at 80 g/ha (AMARE [2]; [22]): 100% | pest or weed control at 80 g/ha (ECHCG [3]; 80 g/ha): 100% | pest or weed control at 20 g/ha (MATIN [4]; dosage 20 g/ha): 90% | pest or weed control at 80 g/ha (MATIN [4]; dosage 80 g/ha): 100% | pest or weed control at 80 g/ha (SETVI [5]): 100% | pest or weed control at 20 g/ha (VERPE [15]; Veronica persica, 504 h, dosage 20 g/ha): 80% | pest or weed control at 80 g/ha (VERPE [15]; Veronica persica, 504 h, dosage 80 g/ha): 100% | pest or weed control at 20 g/ha (VIOTR [6]; Viola tricolor, 504 h, dosage 20 g/ha): 100% | pest or weed control at 80 g/ha (VIOTR [6]; [23]): 100% | pest or weed control at 20 g/ha (DIGSA [7]; dosage 20 g/ha): 90% | pest or weed control at 80 g/ha (DIGSA [7]; dosage 80 g/ha): 100% | pest or weed control at 5 g/ha (ABUTH [8]; dosage 5 g/ha): 80% | pest or weed control at 20 g/ha (ABUTH [8]; dosage 20 g/ha): 80% | pest or weed control at 5 g/ha (ECHCG [9]; Echinochloa crus-galli, 504 h, dosage 5 g/ha): 80% | pest or weed control at 20 g/ha (ECHCG [9]; [24]): 80% | pest or weed control at 20 g/ha (MATIN [10]; dosage 20 g/ha): 80% | pest or weed control at 20 g/ha (POLCO; [25]): 80% | pest or weed control at 5 g/ha (VERPE [13]): 80% | pest or weed control at 20 g/ha (VERPE [13]; 20 g/ha): 80% | pest or weed control at 5 g/ha (VIOTR [14]; Viola tricolor, 504 h, 5 g/ha): 80% | pest or weed control at 20 g/ha (VIOTR [14]; Viola tricolor, 504 h, 20 g/ha): 80%

CCNC(=O)c1c(C(F)F)ccc(C(=O)Nc2nnnn2CC)c1C1CC1 [Example 2-305]
Pre-emergence action against ABUTH (herbicidal activity) (ABUTH [1]; [19]): 100% | Pre-emergence action against ABUTH (herbicidal activity in percent) (ABUTH [1]; [20]): 100% | Pre-emergence action against AMARE in % (AMARE [2]; [21]): 100% | Pre-emergence action against AMARE in % (AMARE [2]; [19]): 100% | Pre-emergence action against ECHCG in % (ECHCG [3]; 20 g/ha): 80% | Pre-emergence action against ECHCG in % (ECHCG [3]; 80 g/ha): 100% | Pre-emergence action against MATIN in % (MATIN [4]; dosage 20 g/ha): 100% | Pre-emergence action against MATIN in % (MATIN [4]; dosage 80 g/ha): 100% | Pre-emergence action against PHBPU in % (PHBPU [16]): 90% | Pre-emergence action against SETVI in % (SETVI [5]): 80% | Pre-emergence action against VERPE in % (VERPE [15]; dosage 80 g/ha): 100% | Pre-emergence action against VIOTR in % (VIOTR [6]; dosage 20 g/ha): 90% | Pre-emergence action against VIOTR in % (VIOTR [6]; dosage 80 g/ha): 100% | Pre-emergence action against DIGSA in % (DIGSA [7]; dosage 20 g/ha): 100% | Pre-emergence action against DIGSA in % (DIGSA [7]; dosage 80 g/ha): 100% | Post-emergence action against ABUTH in % (ABUTH [8]; dosage 5 g/ha): 80% | Post-emergence action against ABUTH in % (ABUTH [8]; dosage 20 g/ha): 90% | Post-emergence action at 20 g/ha against AMARE in % (AMARE [17]): 100% | Post-emergence action against ECHCG in % (ECHCG [9]; dosage 5 g/ha): 90% | Post-emergence action against ECHCG in % (ECHCG [9]; dosage 20 g/ha): 90% | Post-emergence action against MATIN in % (MATIN [10]; dosage 5 g/ha): 80% | Post-emergence action against MATIN in % (MATIN [10]; dosage 20 g/ha): 90% | Post-emergence action against PHBPU in % (PHBPU [11]): 90% | Post-emergence action against POLCO in % (POLCO; dosage 20 g/ha): 100% | Post-emergence action against SETVI in % (SETVI [12]; dosage 5 g/ha): 90% | Post-emergence action against SETVI in % (SETVI [12]; dosage 20 g/ha): 90% | Post-emergence action against VERPE in % (VERPE [13]; 20 g/ha): 90% | Post-emergence action against VIOTR in % (VIOTR [14]; 5 g/ha): 80% | Post-emergence action against VIOTR in % (VIOTR [14]; 20 g/ha): 90% | Post-emergence action against DIGSA in % (DIGSA [18]; 5 g/ha): 80% | Post-emergence action against DIGSA (DIGSA [18]; 20 g/ha): 90%
